Like-named read-outs stand apart in the source and are kept apart here.
What was measured:
HEK 293T cells = settings: cited from earlier work
MDCK cells [1] = settings: cited from earlier work
[2] = system: Influenza virus strain A/PR/8/34 (H1N1); settings: plaque reduction assay in MDCK cells; cited from earlier work
[3] = target: T1, PA–PB1 interaction (6His-PA(239–716) / GST-PB1(1–25)) (Influenza A virus, UniProt P03433)
MDCK cells [4] = assay: Cytotoxicity assay (MTT) in MDCK cells; settings: read-out: CC50 (MDCK Cells); MTT assay, MDCK cells, 48 h; 50% decrease in cell viability
Description: (§1) The cytotoxicity of compounds was tested in MDCK cells using the 3-(4,5-dimethylthiazol-2-yl)-2,5-diphenyl tetrazolium bromide (MTT) method, as previously reported [32]. Briefly, MDCK cells (seeded at a density of 2 × 10^4 per well) were grown in 96-well plates for 24 h and then treated with serial dilutions of test compounds, or DMSO as a control, in DMEM supplemented with 10% FBS. After incubation at 37 °C for 48 h, 5 mg/mL of MTT (Sigma, Tokyo, Japan) in PBS was added into each well and incubated at 37 °C for a further 4 h. Successively, a solubilization solution was added to lyse the cells and incubated overnight at 37 °C. Finally, optical density was read at the wavelength of 570 nm on a microtiter plate reader (MultiSkan FC, ThermoFisher Scientific).

[5] = system: Influenza virus strain A/PR/8/34 (H1N1)
MDCK cells [6] = system: MDCK cells
Description: as §1

[7] = system: Influenza virus strain A/PR/8/34 (H1N1); assay: microbe, parasite or virus in culture; settings: unidentified influenza virus, MDCK, read-out: EC50 (PRA)
in vitro = settings: dog
Description: as §1

[8] = target: T1, PA–PB1 interaction (6His-PA(239–716) / GST-PB1(1–25)); assay: biochemical; format: binding
[9] = Cytotoxicity assay (MTT) in MDCK cells
Description: as §1

[10] = read-out: IC50 (ELISA PA–PB1); ELISA PA–PB1 interaction; cited from earlier work

Row | Structure (SMILES) | melting point [°C] | EC50 [7] [µM] | CC50 at 48 h (in vitro) [µM] | IC50 [8] [µM] | further results
1 | CCC(C)C(NC(=O)CSc1nc(-c2ccccc2)cc(-c2ccc(C)cc2)c1C#N)C(=O)OC (stereo not shown) [Compound 1b] |  |  |  |  | CC50 (HEK 293T cells): 229 µM; CC50 (MDCK cells [1]): > 250 µM; EC50 [2]: 39 ± 2 µM; IC50 ([3]; read-out: IC50 (ELISA PA–PB1); ELISA-based PA–PB1 interaction assay; cited from earlier work): 36 ± 3 µM
2 | CCC(CC)O[C@@H]1C=C(C(=O)O)C[C@H](N)[C@H]1NC(C)=O [OSC, oseltamivir carboxylate] |  |  |  |  | CC50 (MDCK cells [4]): > 250 µM; EC50 ([5]; read-out: EC50 (PRA)): 0.04 ± 0.01 µM
3 | Cc1cccc(NC(=O)CSc2nc(Sc3ccccc3)cc(-c3ccc(Cl)cc3)n2)c1 [Compound 2j, 2-{[4-(4-Chlorophenyl)-6-(phenylthio)pyrimidin-2-yl]thio}-N-(m-tolyl)acetamide] | 150 to 154 | 32.9 ± 4.1 | 16 ± 4.2 | > 200 | cytotoxicity (in words) (MDCK cells [6]): high cytotoxicity
4 | Cc1ccc(-c2cc(-c3ccccc3)nc(SCC(=O)Nc3cccc(C)c3)c2C#N)cc1 [Compound 1a] |  |  |  |  | IC50 ([3]; ELISA PA–PB1 interaction; read-out: IC50 (ELISA PA–PB1); cited from earlier work): 80 µM
5 | Cc1cccc(NC(=O)CSc2nc(-c3ccccc3)cc(-c3ccccc3)n2)c1 [Compound 1d] |  |  |  |  | CC50 (HEK 293T cells): 22.3 µM; CC50 (MDCK cells [1]): 10.1 ± 1.7 µM; EC50 [2]: 3.5 ± 0.5 µM; IC50 [3, 10]: 165 ± 18 µM
6 | Cc1cccc(NC(=O)CSc2nc(-c3ccc(Cl)cc3)cc(-c3cccc4ccccc34)n2)c1 [Compound 2g, 2-{[4-(4-Chlorophenyl)-6-(naphthalen-1-yl)pyrimidin-2-yl]thio}-N-(m-tolyl)acetamide] | 103 to 107 | > 100 | > 250 | > 200 | 
7 | Cc1cccc(NC(=O)CSc2nc(-c3ccccc3)cc(-c3cccc4ccccc34)n2)c1 [Compound 2f, 2-{[4-(Naphthalen-1-yl)-6-phenylpyrimidin-2-yl)thio)-N-(m-tolyl)acetamide] | 147 to 148 | 21.1 ± 8 | > 250 | > 200 | activity as PA–PB1 disruptors (in words) [8]: lack of activity as PA–PB1 disruptors
8 | Cc1cccc(NC(=O)CSc2nc(Sc3ccccc3)cc(-c3ccc(F)cc3)n2)c1 [Compound 2k] | 146 to 147 | 16.4 ± 1.9 | 48.2 ± 2.5 | 159 ± 29 | cytotoxicity (in words) (MDCK cells [6]): high cytotoxicity
9 | Cc1cccc(NC(=O)CSc2cc(-c3ccc(Cl)cc3)cc(Sc3ccccc3)n2)c1 [Compound 2n, 2-{[4-(4-chlorophenyl)-6-(phenylthio)pyridin-2-yl]thio}-N-(m-tolyl)acetamide] | 93 to 95 | 62.9 ± 13.2 | > 250 | 87 ± 15.7 | 
10 | Cc1cccc(NC(=O)CSc2nc(-c3ccccc3)cc(-c3ccc(F)cc3)n2)c1 [Compound 2d, 2-{[4-(4-Fluorophenyl)-6-phenylpyrimidin-2-yl]thio}-N-(m-tolyl)acetamide] | 186 to 190 | 2.8 ± 0.6 | > 250 | 90.1 ± 30.2 | antiviral activity relative to RBV [5]: almost five-fold more active than RBV
11 | Cc1cccc(NC(=O)CSc2cc(-c3ccccc3)cc(-c3ccccc3)n2)c1 [Compound 1e] |  |  |  |  | CC50 (MDCK cells [1]): > 250 µM; EC50 [2]: 7.3 ± 1.3 µM; IC50 [3, 10]: 52.6 ± 9 µM
12 | Cc1cccc(NC(=O)CSc2nc(Sc3ccccc3)cc(-c3ccccc3)n2)c1 [Compound 2i, 2-{[4-Phenyl-6-(phenylthio)pyrimidin-2-yl]thio}-N-(m-tolyl)acetamide] | 127 to 128 | 4.6 ± 0.3 | 73.3 ± 9.1 | 28.8 ± 1.5 | 
13 | CSCC[C@H](N)C(=O)N[C@@H](CC(=O)O)C(=O)N[C@H](C(=O)N[C@@H](CC(N)=O)C(=O)N1CCC[C@H]1C(=O)N[C@H](C(=O)N[C@@H](CC(C)C)C(=O)N[C@@H](CC(C)C)C(=O)N[C@@H](Cc1ccccc1)C(=O)N[C@@H](CC(C)C)C(=O)N[C@@H](CCCCN)C(=O)N[C@H](C(=O)N1CCC[C@H]1C(=O)N[C@@H](C)C(=O)N[C@@H](CCC(N)=O)C(=O)N[C@@H](Cc1ccc(O)cc1)C(=O)NCC(=O)N[C@@H](CCCNC(=N)N)C(=O)N[C@@H](CCCCN)C(=O)N[C@@H](CCCCN)C(=O)N[C@@H](CCCNC(=N)N)C(=O)N[C@@H](CCCNC(=N)N)C(=O)N[C@@H](CCC(N)=O)C(=O)N[C@@H](CCCNC(=N)N)C(=O)N[C@@H](CCCNC(=N)N)C(=O)N[C@@H](CCCNC(=N)N)C(=O)N1CCC[C@H]1C(=O)N1CCC[C@H]1C(=O)O)C(C)C)[C@@H](C)O)C(C)C [PB1(1–15)-Tat peptide] |  |  |  |  | CC50 [9]: > 250 µM; EC50 ([5]; Influenza virus strain A/PR/8/34, 24 h): 49.7 ± 5.1 µM
14 | COC(=O)[C@@H](NC(=O)CSc1nc(-c2ccccc2)cc(-c2ccc(F)cc2)n1)C(C)C [Compound 3a, Methyl (2-((4-(4-fluorophenyl)-6-phenylpyrimidin-2-yl)thio)acetyl)-L-valinate] | 152 to 153 | > 100 | 234 ± 19 | > 200 | 
15 | Cc1cccc(NC(=O)CSc2nc(-c3ccc(Cl)cc3)cc(-c3ccc(Cl)cc3)n2)c1 [Compound 2a, 2-{[4,6-Bis(4-chlorophenyl)pyrimidin-2-yl]thio}-N-(m-tolyl)acetamide] | 225 to 227 | > 100 | > 250 | 70.8 ± 19.5 | 
16 | COC(=O)[C@@H](NC(=O)CSc1nc(-c2ccc(F)cc2)cc(-c2ccc(F)cc2)n1)C(C)C [Compound 3e, Methyl (2-((4,6-bis(4-fluorophenyl)pyrimidin-2-yl)thio)acetyl)-L-valinate] | 174 to 175 | > 100 | > 250 | > 200 | 
17 | Cc1cccc(NC(=O)CSc2nc(-c3ccc(C(F)(F)F)cc3)cc(-c3ccc(C(F)(F)F)cc3)n2)c1 [Compound 1c] |  |  |  |  | CC50 (HEK 293T cells): > 250 µM; CC50 (MDCK cells [1]): > 250 µM; EC50 [2]: 26.5 ± 4.3 µM; IC50 [3, 10]: > 200 µM
18 | Cc1cccc(NC(=O)CSc2nc(C(=O)Nc3ccccc3)cc(-c3ccccc3)n2)c1 [Compound 2l, 2-{[2-oxo-2-(m-tolylamino)ethyl]thio}-N,6-diphenylpyrimidine-4-carboxamide] | 181 to 182 | 13 ± 5.5 | 46.3 ± 10.4 | 125 ± 37 | cytotoxicity (in words) (MDCK cells [6]): high cytotoxicity
19 | Cc1cccc(NC(=O)CSc2nc(-c3ccc(F)cc3)cc(-c3ccc(F)cc3)n2)c1 [Compound 2b, 2-{[4,6-Bis(4-fluorophenyl)pyrimidin-2-yl]thio}-N-(m-tolyl)acetamide] | 210 to 211 | 62.5 ± 4.3 | > 250 | 137 ± 35 | 
20 | CC[C@H](C)[C@H](NC(=O)CSc1nc(-c2ccc(F)cc2)cc(-c2ccc(F)cc2)n1)C(=O)OC [Compound 3f, Methyl (2-((4,6-bis(4-fluorophenyl)pyrimidin-2-yl)thio)acetyl)-L-isoleucinate] | 150 to 151 | > 100 | > 250 | > 200 | 
21 | COC(=O)[C@H](Cc1c[nH]cn1)NC(=O)CSc1nc(-c2ccccc2)cc(-c2ccc(F)cc2)n1 [Compound 3d, Methyl (2-((4-(4-fluorophenyl)-6-phenylpyrimidin-2-yl)thio)acetyl)-L-histidinate] | 77 to 78 | > 100 | 98 ± 11.3 | 70 ± 2.8 | 
22 | NC(=O)c1ncn(C2O[C@H](CO)[C@@H](O)[C@H]2O)n1 (stereo partly drawn) [RBV, 1-D-ribofuranosyl-1,2,4-triazole-3-carboxamide, reference compound] |  | 12.8 ± 3.2 |  |  | CC50 at 48 h ([9]; dog, MDCK cells): > 250 µM
23 | Cc1cccc(NC(=O)CSc2nc(-c3ccccc3)cc(-c3ccc(Cl)cc3)n2)c1 [Compound 2c, 2-{[4-(4-Chlorophenyl)-6-phenylpyrimidin-2-yl]thio}-N-(m-tolyl)acetamide] | 204 to 206 | 45.5 ± 2.1 | > 250 | 86 ± 5.3 | 
24 | COC(=O)[C@H](Cc1ccc(O)cc1)NC(=O)CSc1nc(-c2ccccc2)cc(-c2ccc(F)cc2)n1 [Compound 3c, Methyl (2-((4-(4-fluorophenyl)-6-phenylpyrimidin-2-yl)thio)acetyl)-L-tyrosinate] | 167 to 168 | > 100 | > 250 | 172 ± 7 | 
